Data taken from patent US11273172B2, “Synergistic combination of oligonucleotides and chemotherapeutic for treating cancer” (THE BOARD OF TRUSTEES OF THE UNIVERSITY OF ILLINOIS, priority 2017, dated 2022).
“And” between values parts separate entries of the source, which are not always exact repeats. Identical values can stand only once.

Columns and labels:
Experiment in all cases: MTT cell death assay, chemotherapeutic with and without MADD siRNA knockdown
[1] = system: C643 thyroid cancer cells; assay type: cell-based, human; details: Sorafinib 0.975 μM, siRNA 10 nM, 48 hours post Sorafinib treatment
Experimental: (§1) Cells are cultured and maintained at 37° C. in a humidified atmosphere containing 5% CO2 as described above. On Day 0, Cells are seeded in […] tissue culture dishes (Corning; Cat Number: 353003) to attain 60-70% confluence. In parallel, cells are also seeded in one 96-well plate (Corning; Cat number: 353072) for analysis of survival before reseeding. After 12-18 hours (Day 1), cells are transfected with Scramble or MADD siRNA at 10 nM concentration. The sequences of siRNAs (double-stranded) used are:
(§2) On Day 4, when cells are properly adhered and retained their shape in 96-well plates, drugs are added. All drugs are diluted in complete media on the same day prior to the addition to the cells. In untreated cells, media is replaced with complete media. Two hundred μl volume of media (with or without drugs) is used for the drug treatment assay. Plates are incubated 24 hours, 48 hours and 72 hours at 37° C. in humidified CO2 incubator.
(§3) An MTT assay is performed to determine relative survival after drug treatment as described above. MTT (3-[4,5-Dimethylthiazol-2-yl]-2,5-diphenyltetrazolium bromide; Thiazolyl blue) is purchased from Sigma Aldrich (Cat number: M5655). MTT is dissolved in sterile DPBS at the concentration of 5 mg/ml and filtered through […] syringe filter (Corning; Cat number: 431220). Ten μl of MTT solution is added per well of 96-well plate. Plates are incubated for 2 hours at 37° C. in the humidified CO2 incubator. After 2 hours, media is aspirated using vacuum inside the biosafety hood. Purple colored crystals formed in viable cells are dissolved by adding 100 μl of Dimethyl sulfoxide (Thermo Fisher Scientific; Cat number D128-500) Plates are kept on shaker for 10 minutes for compete dissolution of crystals and absorbance is recorded at 595 nm using Bio-Rad iMark microplate reader. Data is analyzed in MICROSOFT EXCEL® software. Relative survival is calculated with respect to absorbance of control (untreated cells) to determine the effect of transfection as well as combination treatment.
(§4) Each data set takes into account any spontaneous cell death which is observed upon transfection with Scramble siRNA; the amount of spontaneous cell death from Scramble siRNA transfection (baseline) is subtracted from the amount of cell death observed in each siRNA transfection reaction to yield a Net Percent (Net %) cell death after accounting for Scrambled siRNA-induced cell death.

[2] = system: H522 lung cancer cells; assay type: cell-based; details: siRNA 10 nM
Experimental: as §1, §2, §3, §4
as §1, with “(double stranded)” for “(double-stranded)”
as §3, with “D128-500).” for “D128-500)”, “Relative survival is calculated with respect to absorbance of control (untreated cells) to determine the effect of transfection as well as combination treatment.” left out

[3] = system: OVCAR3 ovarian cancer cells; assay type: cell-based; details: siRNA 10 nM
Experimental: as §1, §2, §3, §4
as §1, with “(double stranded)” for “(double-stranded)”
as §3, with “D128-500).” for “D128-500)”, “Relative survival is calculated with respect to absorbance of control (untreated cells) to determine the effect of transfection as well as combination treatment.” left out

[4] = system: JIMT1 breast cancer cells; assay type: cell-based; details: Doxorubicin 0.075 μM, siRNA 10 nM, 24 hours post Doxorubicin treatment
Experimental: as §1, with “(double stranded)” for “(double-stranded)”
as §2, with “added. Doxorubicin was added at a working concentration of 5.0 nM, 9.375 nM, 0.075 μM, 0.25 μM, 0.5 μM, and 0.8 μM.” for “added.”
as §3, with “D128-500).” for “D128-500)”
as §4

[5] = system: N87 gastric carcinoma cells; assay type: cell-based; details: Doxorubicin 0.8 μM, siRNA 10 nM, 72 hours post Doxorubicin treatment
Experimental: as §1, with “(double stranded)” for “(double-stranded)”
as §2, with “added. Doxorubicin was added at a working concentration of 5.0 nM, 9.375 nM, 0.075 μM, 0.25 μM, 0.5 μM, and 0.8 μM.” for “added.”
as §3, with “D128-500).” for “D128-500)”
as §4

[6] = Gemcitabine 8.2 nM, 48 hours post Gemcitabine treatment
[7] = Sorafinib 1.56 μM, 48 hours post Sorafinib treatment
[8] = TRAIL 100 ng/ml, 48 hours post TRAIL treatment
[9] = Gemcitabine 0.0125 μM, 72 hours post Gemcitabine treatment
[10] = Gemcitabine 0.1 μM, 48 hours post Gemcitabine treatment
[11] = Sorafinib 5 μM, 48 hours post Sorafinib treatment

Scrambled siRNA: non-specific Scramble siRNA, negative control; SEQ ID NO: 5, 5′-UUGCUAAGCGUCGGUCAAUTT-3′ (chemistry not given here)
Net % cell death after accounting for Scrambled siRNA [1]: 1 − 1 = 0% | Observed % Cell death [1]: 1% | Net % cell death after accounting for Scrambled siRNA [2, 6]: 30 − 30 = 0% | Observed % Cell death [2, 6]: 30% | Net % cell death after accounting for Scrambled siRNA [2, 7]: 30 − 30 = 0% | Observed % Cell death [2, 7]: 30% | Net % cell death after accounting for Scrambled siRNA [2, 8]: 30 − 30 = 0% | Observed % Cell death [2, 8]: 30% | Net % cell death after accounting for Scrambled siRNA [3, 9]: 26 − 26 = 0% | Observed % Cell death [3, 9]: 26% | Net % cell death after accounting for Scrambled siRNA [3, 10]: 17 − 17 = 0% | Observed % Cell death [3, 10]: 17% | Net % cell death after accounting for Scrambled siRNA [3, 11]: 17 − 17 = 0% | Observed % Cell death [3, 11]: 17% | Net % cell death after accounting for Scrambled siRNA [4]: 33 − 33 = 0% | Observed % Cell death [4]: 33% | Net % cell death after accounting for Scrambled siRNA [5]: 14 − 14 = 0% | Observed % Cell death [5]: 14%

CNC(=O)c1cc(Oc2ccc(NC(=O)Nc3ccc(Cl)c(C(F)(F)F)c3)cc2)ccn1 [Sorafinib]
Net % cell death after accounting for Scrambled siRNA [1]: 3% | Observed % Cell death [1]: 3% | Net % cell death after accounting for Scrambled siRNA [2, 7]: 0% | Observed % Cell death [2, 7]: 0% | Net % cell death after accounting for Scrambled siRNA [3, 11]: 17% | Observed % Cell death [3, 11]: 17%

MADD siRNA: siRNA targeting exon 13L of the MADD splice variant of the IG20 gene; SEQ ID NO: 4, 5′-GAUUGUCAUAGAUUCGCCGTT-3′ (chemistry not given here)
Net % cell death after accounting for Scrambled siRNA [1]: 13% and 14 − 1 = 13% | Observed % Cell death [1]: 14% | Observed % Cell death [2, 6]: 37% | Observed % Cell death [2, 7]: 37% | Observed % Cell death [2, 8]: 37% | Observed % Cell death [3, 9]: 23% | Observed % Cell death [3, 10]: 19% | Observed % Cell death [3, 11]: 19% | Observed % Cell death [4]: 59% | Observed % Cell death [5]: 21%

B1: TRAIL: cytotoxic protein which induces apoptosis in tumor cells, but not in normal cells (protein, UniProt P50591 1-281, looked up)
Tumor necrosis factor ligand …: MAMMEVQGGPSLGQTCVLIVIFTVLLQSLCVAVTYVYFTNELKQMQDKYSKSGIACFLKEDDSYWDPNDEESMNSPCWQVKWQLRQLVRKMILRTSEETISTVQEKQQNISPLVRERGPQRVAAHITGTRGRSNTLSSPNSKNEKALGRKINSWESSRSGHSFLSNLHLRNGELVIHEKGFYYIYSQTYFRFQEEIKENTKNDKQMVQYIYKYTSYPDPILLMKSARNSCWSKDAEYGLYSIYQGGIFELKENDRIFVSVTNEHLIDMDHEASFFGAFLVG
Net % cell death after accounting for Scrambled siRNA [2, 8]: 0% | Observed % Cell death [2, 8]: 0%
